From patent publication US20230118114A1, “BIOERODIBLE LIFE SUPPORT HYDROGELS FOR THE DELIVERY OF VIABLE MITOCHONDRIA” (University of Kentucky Research Foundation, priority 2021, published 2023)
Entries after “also recorded” stand apart in the source; their conditions may differ.

How the values were obtained:
[1] = test system: mitochondria isolated from spinal cord injury site; assay: Mitochondrial respiration (OCR) of spinal cord mitochondria after contusion SCI; format: in vivo, rats; settings: 24 hours after SCI; MitoTxp 100 µg intraspinal within 3 hr; ALC 300 mg/kg i.p. at 3 hours plus booster 6 hours later
Method: Bars are Mean ± SD, n=5-6/group. *p<0.05 compared with sham; # p<0.05 versus vehicle.
Briefly, rats were contused at L1/L2 spinal level with 250 kDyn force using Infinite Horizon Impactor; Sham group received only T12 laminectomy. Designated injured rats were injected either intraspinally with healthy mitochondria (100 µg, MitoTxp) isolated from syngeneic rat soleus muscle within 3 hr and/or injected with ALC (300 mg/kg, i.p.) at 3 hours followed by a booster 6 hours later. Then, after 24 hours, mitochondria were isolated from spinal cord injury site and assessed for respiration (OCR).

spinal cord injury (SCI) = settings: cited from earlier work
[2] = test system: mitochondria isolated from spinal cord injury site; settings: once daily ALC administered acutely after contusion SCI; cited from earlier work

| Compound | States III & V.1 OCR [1] | long term hind limb locomotor function and tissue sparing (spinal cord injury (SCI); continued daily ALC for three weeks after contusion SCI) | hind limb function (spinal cord injury (SCI); injured rats, 3 weeks of daily ALC treatment, vs vehicle) | tissue sparing (spinal cord injury (SCI); injured rats, 3 weeks of daily ALC treatment) | mitochondrial respiration [2] | long-term functional recovery and tissue sparing (spinal cord injury (SCI); continuous NACA 150 and 300 mg/kg/day up to 7 days post-injury) |
| --- | --- | --- | --- | --- | --- | --- |
| CC(=O)O[C@H](CC(=O)[O-])C[N+](C)(C)C [ALC, acetyl-L-carnitine] | insignificant trends | significantly improves long term hind limb locomotor function and tissue sparing | able to step consistently with weight support on their hind limbs | increased gray and white matter tissue sparing | maintains mitochondrial respiration |  |
| N-acetylcysteine amide [NACA] |  |  |  |  |  | significant tissue sparing and improved recovery of hindlimb function; also recorded: significantly increased long-term functional recovery and tissue sparing |
